From patent US9416141B2 (University of Washington through its Center for …, priority 2012, dated 2016)
pEC50: −log10 of the molar value. Structures can show the parent of a compound that is named as a salt.

System: hair cells
Assay: Hair cell toxicity assay in zebrafish (neomycin-induced hair cell death, DASPEI staining of neuromasts)
Format: in vivo
Conditions: Danio rerio; for Emax at 25 µM: maximum observed @ 25 μM test compound; for pEC50: zebrafish larvae 5-7 dpf, 1 h pre-treatment, then 200 micromolar neomycin + test compound 30 min, read-out: HC50 (concentration that would produce 50% hair cell survival); for Emax at 2.8 µM: maximum observed @ 2.8 μM test compound; for Emax at 8.3 µM: maximum observed @ 8.3 μM test compound
Summary of the method: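 Zebrafish larvae 5-7 dpf pre-treated 1 h with compound (0.010-25 μM), then 30 min with 200 μM neomycin plus compound. DASPEI stained 10 neuromasts per fish, scored 0-2 (total 0-20), normalised to vehicle controls as % hair cell survival. HC50 linearly interpolated if survival reached ≥50%; HCmax is maximum survival.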

[1] = 200 micromolar neomycin, read-out: Max HC Protection (HCmax, % hair cell survival)

| SMILES | Emax at 25 µM [1] | pEC50 | Emax at 2.8 µM [1] | further results |
| --- | --- | --- | --- | --- |
| CCN1CCc2c(sc(NC=O)c2C(N)=O)C1 [Example 108, 6-ethyl-2-formamido-4,5,6,7-tetrahydrothieno[2,3-c]pyridine-3-carboxamide hydrochloride] | – | – | – | Emax at 0.9 µM (maximum observed @ 0.9 μM test compound, 200 micromolar neomycin, read-out: Max HC Protection (HCmax, % hair cell survival)): 13% |
| CCN1CCc2c(sc(NC(=O)Nc3ccc4cc(F)ccc4c3)c2C(N)=O)C1 [Example 93, 6-ethyl-2-[3-(6-fluoronaphthalen-2-yl)ureido]-4,5,6,7-tetrahydrothieno[2,3-c]pyridine-3-carboxamide hydrochloride] | 97% | 5.00 to 6.00 | – | – |
| CC(C)(C)OC(=O)CN1CCc2c(sc(NC(=O)Nc3ccc(Cl)cc3)c2C(N)=O)C1 [Example 58, tert-butyl 2-{3-carbamoyl-2-[3-(4-chlorophenyl)ureido]-4,5-dihydrothieno[2,3-c]pyridin-6(7H)-yl}acetate] | – | – | 7% | – |
| CN1CCC(N2CCc3c(sc(NC(=O)Nc4ccc(Cl)cc4)c3C(N)=O)C2)C1 (racemic) [Example 9, (+/−)-2-[3-(4-Chlorophenyl)ureido]-6-(1-methylpyrrolidin-3-yl)-4,5,6,7-tetrahydrothieno[2,3-c]pyridine-3-carboxamide dihydrochloride] | 82% | 5.00 to 6.00 | – | – |
| CCN1CCc2c(sc(NC(=O)Nc3ccc4ncccc4c3)c2C(N)=O)C1 [Example 79, 6-Ethyl-2-[3-(quinolin-6-yl)ureido]-4,5,6,7-tetrahydrothieno[2,3-c]pyridine-3-carboxamide dihydrochloride] | – | – | – | Emax at 0.3 µM (maximum observed @ 0.3 μM test compound, 200 micromolar neomycin, read-out: Max HC Protection (HCmax, % hair cell survival)): 34% |
| CN1C2CCC1c1sc(NC(=O)Nc3ccc(Cl)cc3)c(C(N)=O)c1C2 (racemic) [Example 125, (+/−)-2-[3-(4-chlorophenyl)ureido)-9-methyl-5,6,7,8-tetrahydro-4H-5,8-epiminocyclohepta[b]thiophene-3-carboxamide hydrochloride] | – | > 6.00 | – | Emax at 8.3 µM [1]: 99% |
| CC(C)(C)OC(=O)N1CCC(N2CCc3c(sc(NC(=O)Nc4ccc(Cl)cc4)c3C(N)=O)C2)C1 (stereo not shown) [Example 4, tert-Butyl 3-{3-carbamoyl-2-[3-(4-chlorophenyl)ureido]-4,5-dihydrothieno[2,3-c]pyridin-6(7H)-yl}pyrrolidine-1-carboxylate] | – | 5.00 to 6.00 | – | Emax at 8.3 µM [1]: 56% |
| NC(=O)c1c(NC(=O)Nc2ccc(Cl)cc2)sc2c1CCN(CCCNC(=O)/C=C/c1ccccc1)C2 [Example 217, 2-{[(4-chlorophenyl)carbamoyl]amino}-6-{3-[(2E)-3-phenylprop-2-enamido]propyl}-4H,5H,6H,7H-thieno[2,3-c]pyridine-3-carboxamide] | – | > 6.00 | 93% | – |
| CCN1CCc2c(sc(NC(=O)Nc3ccc(Cl)c(C)c3)c2C(N)=O)C1 [Example 64, 2-[3-(4-chloro-3-methylphenyl)ureido]-6-ethyl-4,5,6,7-tetrahydrothieno[2,3-c]pyridine-3-carboxamide hydrochloride] | 77% | 5.00 to 6.00 | – | – |
| CCN1CCc2c(sc(NC(=O)NCc3cccc(Cl)c3)c2C(N)=O)C1 [Example 75, 2-[3-(3-Chlorobenzyl)ureido]-6-ethyl-4,5,6,7-tetrahydrothieno[2,3-c]pyridine-3-carboxamide hydrochloride] | 24% | – | – | – |
| CN1CCCC12CCc1c(sc(NC(=O)Nc3ccc(Cl)cc3)c1C(N)=O)C2 (racemic) [Example 111, (+/−)-2-[3-(4-chlorophenyl)ureido]-1′-methyl-5,7-dihydro-4H-spiro(benzo[b]thiophene-6,2′-pyrrolidine)-3-carboxamide hydrochloride] | – | 5.00 to 6.00 | 55% | – |
| C[N+]1(C2CCOCC2)CCc2c(sc(NC(=O)Nc3ccc(Cl)cc3)c2C(N)=O)C1 (stereo not shown) [Example 143, 3-Carbamoyl-2-[3-(4-chlorophenyl)ureido]-6-methyl-6-(tetrahydro-2H-pyran-4-yl)-4,5,6,7-tetrahydrothieno[2,3-c]pyridin-6-ium iodide] | 96% | 5.00 to 6.00 | – | – |
| CC(C)NC(=O)CCCN1CCc2c(sc(NC(=O)Nc3ccc(Cl)cc3)c2C(N)=O)C1 [Example 25, 2-[3-(4-Chlorophenyl)ureido]-6-[4-(isopropylamino)-4-oxobutyl]-4,5,6,7-tetrahydrothieno[2,3-c]pyridine-3-carboxamide hydrochloride] | – | 5.00 to 6.00 | 57% | – |
| CCN1CCc2c(sc(NC(=O)Nc3ccc(F)cc3)c2C(N)=O)C1 [Example 66, 6-Ethyl-2-[3-(4-fluorophenyl)ureido]-4,5,6,7-tetrahydrothieno[2,3-c]pyridine-3-carboxamide hydrochloride] | 57% | < 5.00 | – | – |
| CCN1CCc2c(sc(NC(=O)Nc3ccccc3Cl)c2C(N)=O)C1 [Example 65, 2-[3-(2-Chlorophenyl)ureido]-6-ethyl-4,5,6,7-tetrahydrothieno[2,3-c]pyridine-3-carboxamide hydrochloride] | – | – | 17% | – |
| CON=C1CCc2c(sc(NC(=O)Nc3ccc(Cl)cc3)c2C(N)=O)C1 (single isomer, unassigned) [Example 121, 2-[3-(4-chlorophenyl)ureido]-6-(methoxyimino)-4,5,6,7-tetrahydrobenzo[b]thiophene-3-carboxamide] | – | – | – | Emax at 3 µM (maximum observed @ 03 μM test compound, 200 micromolar neomycin, read-out: Max HC Protection (HCmax, % hair cell survival)): 6% |
| COC(=O)CCCN1CCc2c(sc(NC(=O)Nc3ccc(Cl)cc3)c2C(N)=O)C1 [Example 20, Methyl 4-{3-carbamoyl-2-[3-(4-chlorophenyl)ureido]-4,5-dihydrothieno[2,3-c]pyridin-6(7H)-yl}butanoate hydrochloride] | 65% | 5.00 to 6.00 | – | – |
| NC(=O)c1c(NC(=O)Nc2ccc(Cl)cc2)sc2c1CCN(C1CCOCC1)C2 [Example 5, 2-[3-(4-Chlorophenyl)ureido]-6-(tetrahydro-2H-pyran-4-yl)-4,5,6,7-tetrahydrothieno[2,3-c]pyridine-3-carboxamide hydrochloride] | – | 5.00 to 6.00 | – | Emax at 8.3 µM [1]: 89% |
| CC(C)(C)C[N+]1(C)CCc2c(sc(NC(=O)Nc3ccc(Cl)cc3)c2C(N)=O)C1 (stereo not shown) [Example 171, 3-Carbamoyl-2-[3-(4-chlorophenyl)ureido]-6-methyl-6-neopentyl-4,5,6,7-tetrahydrothieno[2,3-c]pyridin-6-ium iodide] | – | > 6.00 | 92% | – |
| COC(=O)CCN1CCc2c(sc(NC(=O)Nc3ccc(Cl)cc3)c2C(N)=O)C1 [Example 55, Methyl 3-{3-carbamoyl-2-[3-(4-chlorophenyl)ureido]-4,5-dihydrothieno[2,3-c]pyridin-6(7H)-yl}propanoate] | – | – | 17% | – |
| CN1CCN(CCN2CCc3c(sc(NC(=O)Nc4ccc(Cl)cc4)c3C(N)=O)C2)CC1 [Example 45, 2-[3-(4-Chlorophenyl)ureido]-6-[2-(4-methylpiperazin-1-yl)ethyl]-4,5,6,7-tetrahydrothieno[2,3-c]pyridine-3-carboxamide hydrochloride] | 78% | 5.00 to 6.00 | – | – |
| CC1(CN2CCc3c(sc(NC(=O)Nc4ccc(Cl)cc4)c3C(N)=O)C2)CC1 [Example 63, 2-[3-(4-Chlorophenyl)ureido]-6-[(1-methylcyclopropyl)methyl]-4,5,6,7-tetrahydrothieno[2,3-c]pyridine-3-carboxamide hydrochloride] | – | 5.00 to 6.00 | 54% | – |
